Assay results: patent US8734849B2, “Multiparticle pharmaceutical dosage form containing a mucoadhesively formulated peptide or protein active substances method for producing said pharmaceutical dosage form” (Evonik Roehm GmbH, priority 2003, dated 2014)
Where a SMILES comes first, the peptide text is derived from it. [ ]: non-standard residue; d: D form. dPhe(4-Cl) = N[C@H](Cc1ccc(Cl)cc1)C(=O)O; d2Nal = N[C@H](Cc1ccc2ccccc2c1)C(=O)O; dCit = NC(=O)NCCC[C@@H](N)C(=O)O; d3Pal = N[C@H](Cc1cccnc1)C(=O)O

Experiment: Solubility in water according to DAB 10
Format: physicochemical
Source text: The solubility in water for the active substance and the substance or substances forming the lipophilic matrix can be defined as specified in DAB 10 (Deutsches Arzneibuch, 10th edition with 3rd supplement 1994, Deutscher Apothekerverlag, Stuttgart und Govi Verlag, Frankfurt/Main, 2nd supplement (1993), IV Allgemeine Vorschriften, pp. 5-6, “Löslichkeit und Lösungsmittel”; see also Ph. Eur. Jul. 4, 2004). The solubility is defined by the number of parts by volume of solvent for 1 part by weight of substance or drug. The definition of “sparingly soluble” includes substances which require from 30 to 100 parts by volume of solvent for 1 part by weight of substance or drug, and the definition of “slightly soluble” includes substances which require from 100 to 1000 parts by volume of solvent for 1 part by weight of substance or drug.

Molecule	solubility in water according to DAB 10	solubility (equivalent of the DAB 10 parts)	solubility in water, equivalent
CC(=O)N[C@H](Cc1ccc2ccccc2c1)C(=O)N[C@H](Cc1ccc(Cl)cc1)C(=O)N[C@H](Cc1cccnc1)C(=O)N[C@@H](CO)C(=O)N[C@@H](Cc1ccc(O)cc1)C(=O)N[C@H](CCCNC(N)=O)C(=O)N[C@@H](CC(C)C)C(=O)N[C@@H](CCCNC(=N)N)C(=O)N1CCC[C@H]1C(=O)N[C@H](C)C(N)=O [Cetrorelix acetate] (Ac-[d2Nal][dPhe(4-Cl)][d3Pal]SY[dCit]LRP[dA]-NH2)	at least 1000 parts of water for 1 part of active substance	1000 µg/mL	–
Erythropoetin alfa: slightly soluble protein active substance	at least 500 parts of water for 1 part of active substance	–	2000 µg/mL
